This is an account of results in patent US20140170768A1, “METHOD FOR MONITORING AND ASSESSING PITUITARY FUNCTION” (priority 2012, published 2014).

What all share (type): in vivo, human
The subject of test [1] is patients with Cushing's syndrome secondary to ectopic ACTH secretion. Briefly: Case One: ACTH and cortisol response to mifepristone in Cushing's syndrome secondary to ectopic ACTH secretion. The source says: (§1) Hypercortisolism can result from excessive pituitary ACTH secretion, ectopic ACTH synthesis, overproduction of cortisol by an adrenal tumor, and rarely by extra-hypothalamic CRH production. Identifying the cause of excess cortisol production relies upon the sensitivity of pituitary-dependent ACTH secretion to inhibition by pharmacologic doses of dexamethasone. Mifepristone is a glucocorticoid receptor antagonist approved for the treatment of hyperglycemia in patients with Cushing's disease. It was hypothesized that mifepristone, by blocking glucocorticoid receptors, could be used to identify patients with pituitary-dependent hypercortisolism (i.e., Cushing's disease), as ACTH and cortisol levels should rise in these patients following mifepristone administration, while ACTH and cortisol should not change following mifepristone administration in patients with ectopic ACTH or primary adrenal disease (i.e., Cushing's syndrome). To test this hypothesis, patients with either Cushing's Disease or Cushing's Syndrome were administered mifepristone and monitored under the following conditions. Data are presented relating to ACTH and cortisol responses in patients with Cushing's disease following transphenoidal surgery (n=18) (i.e., surgery in which surgical instruments are inserted into part of the brain by going through the nose and the sphenoid bone (a butterfly-shaped bone at the base of the skull) in order to remove tumors of the pituitary gland), patients with Cushing's disease following transphenoidal surgery and pituitary radiation therapy (n=23), and patients with Cushing's syndrome secondary to ectopic ACTH secretion (n=4). All patients received mifepristone 300 mg orally per day. ACTH and cortisol were measured as close to 8 AM as possible using a centralized laboratory (Quest Diagnostics, Collegeville, Pa.) 14 days after commencing mifepristone therapy.

Test [2] deals with person with recurrent Cushing's disease. As to the kind of experiment: Case Two: ACTH and cortisol before and after a single mifepristone dose in recurrent Cushing's disease. Particulars: 8 AM the morning following a 300 mg dose. Here is the method:
A person with recurrent Cushing's disease following pituitary surgery received a dose of 300 mg mifepristone. ACTH and cortisol were measured at 8 AM prior to and at 8 AM the morning following the dose of mifepristone.

In test [3] the test system is patients with Cushing's disease. As to the kind of experiment: Case One: ACTH and cortisol response to mifepristone in Cushing's disease patients after transphenoidal surgery, with or without radiation therapy.
Source text: as §1

Test [4] relates to person with adrenal insufficiency. As to the kind of experiment: Case Three: ACTH and cortisol before and after a single mifepristone dose in adrenal insufficiency. Particulars: 8 AM on the day after a single 300 mg dose. Here is the method: ACTH and cortisol levels were low (ACTH<[…] and cortisol 2.4 micrograms/deciliter following exogenous ACTH administration). Based upon the finding of both low ACTH and cortisol, the cause of their adrenal insufficiency could be due to pituitary or to hypothalamic disease. […] ACTH and cortisol were measured at 8 AM on the day after they received a single dose of 300 mg mifepristone.

Setting [5] is: Cushing's syndrome due to ectopic ACTH, Day 14 vs Day 0, NS.
The mark [6] stands for this setting: Cushing's disease after surgery and radiation therapy, Day 14 vs Day 0, mifepristone 300 mg/day orally.
The mark [7] stands for this setting: Cushing's disease, no radiation therapy, Day 14 vs Day 0, mifepristone 300 mg/day orally.

For `CC#C[C@]1(O)CC[C@H]2[C@@H]3CCC4=CC(=O)CCC4=C3[C@@H](c3ccc(N(C)C)cc3)C[C@@]21C` [mifepristone], in test [1] (setting [5]), the “ACTH, Fold change” value was 1.75 ± .75 and the “cortisol, Fold change” value was 1.21 ± .79. Besides, in test [1] (patients with ectopic ACTH, mifepristone 300 mg/day, 14 days), the “change in ACTH or cortisol following mifepristone therapy” value is “substantially no significant change”. Further, in test [2] (pre-mifepristone 19.7), the “cortisol Post-mifepristone” value was found to be 32.9 micrograms/deciliter. In test [2] (pre-mifepristone 84), the “ACTH Post-mifepristone” value was 129 picograms/ml plasma. In test [3] (setting [6]), the “ACTH s/p RT, Fold change” value is on record as 1.40 ± .45 and the “cortisol s/p RT, Fold change” value is on record as 1.24 ± .23. The “rise in ACTH and cortisol, no radiation therapy versus radiation therapy” value in test [3] (Cushing's disease no RT compared with s/p RT, mifepristone 300 mg/day, 14 days) is “significantly greater rise”. Besides, in test [3] (setting [7]), the “ACTH no RT, Fold change” value is 2.13 ± .96 and the “cortisol no RT, Fold change” value is listed as 1.56 ± .6. The “cortisol Post-mifepristone” value in test [4] (pre-mifepristone 2.1) amounted to 11.3 micrograms/deciliter. In test [4] (pre-mifepristone <5), the “ACTH Post-mifepristone” value is on record as 13 picograms/ml plasma.
